Here are results for 34 molecules from patent US6376670B1, “Quinoline-indole antimicrobial agents, uses and compositions related thereto” (Sepracor Inc., priority 1997, dated 2002).

Common to all, as to experiment: Determination of MIC values (BHI broth, 96 well microtiter plate)
Holding throughout (type): cell-based

In one assay the test system is Streptococcus pneumoniae. As to conditions: Streptococcus pneumoniae, read-out: MIC S. pneu. The gist of the method:
(§1)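 BHI broth microdilution; final compound 25, 12.5, 6.25, 3.125, 1.56, 0.78, 0.39, 0 µg/mL (1% DMSO). Inoculum 10^5–10^6 cells/mL; 37° C, ~7-10% CO2, ~16 h. MIC = lowest concentration, no observable growth.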

The subject of assay [1] is methicillin-resistant Staphylococcus aureus (MRSA). The settings on record: MRSA; for MIC: Staphylococcus aureus, read-out: MIC MRSA. A digest of the protocol: as §1
Assay [2] concerns vancomycin-resistant Enterococcus spp. (VRE). The settings on record: Enterococcus, VRE, read-out: MIC VREF. A digest of the protocol:
as §1

[3] abbreviates: S. pneu, BHI broth, overnight 37° C.
The mark [4] stands for this setting: VREF, BHI broth, overnight 37° C.
[5] abbreviates: BHI broth, 37° C., about 16 hours.
[6] abbreviates: 16 h, BHI broth, 37° C., about 16 hours.
The mark [7] stands for this setting: BHI broth, 37° C., overnight (about 16 hours).
[8] abbreviates: 16 h, BHI broth, 37° C., overnight (about 16 hours).

Like-named read-outs stand apart in the source and are kept apart here.

The MIC is the lowest concentration found to suppress growth. With `NCc1ccc(CNC(=O)c2cc(-c3c[nH]c4ccc(Br)cc34)c3ccccc3n2)cc1` [Example 306], the MIC in the assay with Streptococcus pneumoniae (setting [3]) was < 7 µg/mL; in assay [1] (BHI broth, overnight 37° C.), < 7 µg/mL; in assay [2] (setting [4]), < 7 µg/mL.
`NCc1cccc(CNC(=O)c2cc(-c3c[nH]c4ccc(Br)cc34)nc3ccc(C#CCN4CCCC4)cc23)c1` [Example 242]: the minimal inhibitory concentration (MIC) in the assay on Streptococcus pneumoniae (setting [3]) was < 7 µg/mL; in assay [1] (BHI broth, overnight 37° C.), < 7 µg/mL; in assay [2] (setting [4]), < 25 µg/mL.
Turning to `Oc1ccc2[nH]cc(-c3cc(Cl)c4ccccc4n3)c2c1` [Example 347], the MIC in the assay on Streptococcus pneumoniae (setting [3]) was < 25 µg/mL; in assay [1] (BHI broth, overnight 37° C.), < 25 µg/mL; in assay [2] (setting [4]), > 25 µg/mL.
On to `Cn1cc(-c2cc(C(=O)NCc3ccc(CN)cc3)c3cc(C#CCN4CC=CC4)ccc3n2)c2cc(Br)ccc21` [Example 396], for which the MIC in the assay on Streptococcus pneumoniae (setting [3]) is > 25 µg/mL; in assay [1] (BHI broth, overnight 37° C.) it was > 25 µg/mL; in assay [2] (setting [4]), > 25 µg/mL.
Regarding `NCc1ccc(CNC(=O)c2cc(-c3c[nH]c4ccc(Br)cc34)nc3c(C#CCN4CCSCC4)cccc23)cc1` [Example 271], the MIC with Streptococcus pneumoniae (setting [3]) was < 7 µg/mL; in assay [1] (BHI broth, overnight 37° C.), < 7 µg/mL; in assay [2] (setting [4]), < 25 µg/mL.
As for `N#Cc1ccc2[nH]cc(-c3cc(Cl)c4ccc(Cl)cc4n3)c2c1` [Example 462], the MIC (in the assay on Streptococcus pneumoniae (setting [5]); in assay [1] (setting [6]); in assay [2] (setting [6])) was > 25 µg/mL throughout.
As for `Cc1cc2nc(-c3c[nH]c4ccc(Br)cc34)cc(C(=O)NCC3CCC(CN)CC3)c2cc1C` (stereo not drawn) [Example 128], the MIC (in the assay on Streptococcus pneumoniae (setting [7]); in assay [1] (setting [8]); in assay [2] (setting [8])) was < 7 µg/mL throughout.
For the molecule `Clc1cc(-c2c[nH]c3c(Br)cccc23)nc2ccccc12` [Example 346], the minimal inhibitory concentration (MIC) in the assay on Streptococcus pneumoniae (setting [3]) is < 25 µg/mL; in assay [1] (BHI broth, overnight 37° C.), < 25 µg/mL; in assay [2] (setting [4]), > 25 µg/mL.
As for `N#Cc1ccc2[nH]cc(-c3ccc4cc(Cl)ccc4n3)c2c1` [Example 200], the MIC (in the assay with Streptococcus pneumoniae (setting [3]); in assay [2] (setting [4])) was > 25 µg/mL in each case. Moreover, the “MIC MRSA” value in assay [1] (BHI broth, overnight 37° C.) is < 7 µg/mL.
In the case of `NCc1ccc(CNC(=O)c2cc(-c3c[nH]c4ccc(Br)cc34)nc3ccc(C#CCNC4CCCCC4)cc23)cc1` [Example 236], the minimum inhibitory concentration (MIC) in the assay on Streptococcus pneumoniae (setting [3]) is < 7 µg/mL; in assay [1] (BHI broth, overnight 37° C.) it was < 7 µg/mL; in assay [2] (setting [4]), < 7 µg/mL.
Turning to `O=C(NCc1nc2ccccc2[nH]1)c1cc(-c2c[nH]c3ccc(Br)cc23)nc2ccc(C(F)(F)F)cc12` [Example 172], the MIC is < 7 µg/mL in the assay on Streptococcus pneumoniae (setting [7]), < 7 µg/mL in assay [1] (setting [8]) and > 25 µg/mL in assay [2] (setting [8]).
For `C[Si](C)(C)CCOC(=O)n1cc(/C=N/c2ccc(I)cc2)c2cc(Br)ccc21` [Example 383], the MIC (in the assay on Streptococcus pneumoniae; in assay [1]; in assay [2]) was > 25 µg/mL throughout.
`O=C(NCc1nc2ccccc2[nH]1)c1cc(-c2c[nH]c3ccc(Br)cc23)nc2ccc(I)cc12` [Example 173]: the MIC in the assay with Streptococcus pneumoniae (setting [7]) is < 7 µg/mL; in assay [1] (setting [8]), < 7 µg/mL; in assay [2] (setting [8]) it was > 25 µg/mL.
For `COC(=O)c1cc(-c2c[nH]c3ccc(Br)cc23)nc2cc(F)ccc12` [Example 486], the MIC (with Streptococcus pneumoniae (setting [5]); in assay [1] (setting [6]); in assay [2] (setting [6])) was < 7 µg/mL each time.
On to `COc1ccc(NC(=O)c2cc(-c3c[nH]c4ccc(Br)cc34)nc3ccc(C(F)(F)F)cc23)cc1` [Example 170], for which the MIC in the assay with Streptococcus pneumoniae (setting [7]) is < 7 µg/mL; in assay [1] (setting [8]), < 7 µg/mL; in assay [2] (setting [8]) it was > 25 µg/mL.
With `Fc1ccc2c(-c3ccc4ccccc4n3)c[nH]c2c1` [Example 183], the MIC with Streptococcus pneumoniae (setting [7]) is > 25 µg/mL; in assay [1] (setting [8]), < 25 µg/mL; in assay [2] (setting [8]) it was > 25 µg/mL.
`Cc1ccc2c(C(=O)NCc3ccc(CN)cc3)cc(-c3c[nH]c4ccc(Br)cc34)nc2c1` [Example 161]: the MIC (in the assay on Streptococcus pneumoniae (setting [7]); in assay [1] (setting [8]); in assay [2] (setting [8])) was < 7 µg/mL throughout.
As for `Clc1cc(-c2c[nH]c3ccc(Br)cc23)nc2ccccc12` [Example 345], the MIC in the assay with Streptococcus pneumoniae (setting [3]) is < 7 µg/mL; in assay [1] (BHI broth, overnight 37° C.), < 7 µg/mL; in assay [2] (setting [4]), > 25 µg/mL.
Take `Cc1ccc2nc(-c3c[nH]c4ccc(Br)cc34)cc(C(=O)NCc3cccc(CN)c3)c2c1` [Example 122]: the MIC (with Streptococcus pneumoniae (setting [7]); in assay [1] (setting [8]); in assay [2] (setting [8])) was < 7 µg/mL each time.
Take `NCc1cccc(CNC(=O)c2cc(-c3c[nH]c4ccc(Br)cc34)nc3cc(I)ccc23)c1` [Example 252]: the MIC was < 7 µg/mL in the assay with Streptococcus pneumoniae (setting [3]); < 7 µg/mL in assay [1] (BHI broth, overnight 37° C.); < 7 µg/mL in assay [2] (setting [4]).
For the molecule `Cn1cc(-c2cc(C(=O)NCc3ccc(CN)cc3)c3cc(C#CCNCCc4ccc(Cl)cc4)ccc3n2)c2cc(Br)ccc21` [Example 390], the MIC is < 7 µg/mL with Streptococcus pneumoniae (setting [3]); < 25 µg/mL in assay [1] (BHI broth, overnight 37° C.); < 7 µg/mL in assay [2] (setting [4]).
With `NCCNC(=O)c1cc(-c2c[nH]c3ccc(Br)cc23)nc2ccc(C#CCO)cc12` [Example 523], the MIC (with Streptococcus pneumoniae (setting [5]); in assay [1] (setting [6]); in assay [2] (setting [6])) was < 7 µg/mL in each case.
With `NCc1ccc(CNC(=O)c2cc(-c3c[nH]c4ccc(Br)cc34)nc3cc(C#CCNCCc4ccc(Cl)cc4)ccc23)cc1` [Example 300], the MIC in the assay with Streptococcus pneumoniae (setting [3]) is < 25 µg/mL; in assay [1] (BHI broth, overnight 37° C.) it was < 7 µg/mL; in assay [2] (setting [4]) it was < 7 µg/mL.
Regarding `OCc1cc(-c2c[nH]c3ccc(Br)cc23)nc2ccccc12` [Example 442], the MIC in the assay on Streptococcus pneumoniae (setting [5]) was < 7 µg/mL; in assay [1] (setting [6]), < 7 µg/mL; in assay [2] (setting [6]), < 25 µg/mL.
Turning to `NCCNC(=O)c1cc(-c2c[nH]c3ccc(Cl)cc23)nc2c(Br)cccc12` [Example 322], the MIC in the assay with Streptococcus pneumoniae (setting [3]) was < 7 µg/mL; in assay [1] (BHI broth, overnight 37° C.) it was < 7 µg/mL; in assay [2] (setting [4]), < 7 µg/mL.
As for `NCCNC(=O)c1cc(-c2c[nH]c3ccc(Br)cc23)nc2ccc(C#CCN3CC=CCC3)cc12` [Example 526], the MIC (with Streptococcus pneumoniae (setting [5]); in assay [1] (setting [6]); in assay [2] (setting [6])) was < 7 µg/mL each time.
In the case of `OCc1cc(-c2c[nH]c3ccc(Br)cc23)nc2c(F)cccc12` [Example 444], the MIC in the assay on Streptococcus pneumoniae (setting [5]) was < 7 µg/mL; in assay [1] (setting [6]) it was < 7 µg/mL; in assay [2] (setting [6]) it was < 25 µg/mL.
`CCB(OC)C(=O)c1cc(-c2c[nH]c3ccc(Br)cc23)nc2cc(Br)ccc12` [Example 375]: the MIC in the assay with Streptococcus pneumoniae (setting [3]) was > 25 µg/mL; in assay [1] (BHI broth, overnight 37° C.) it was > 25 µg/mL; in assay [2] (setting [4]), > 25 µg/mL.
`NCCCCCCNC(=O)c1cc(-c2c[nH]c3ccc(Br)cc23)nc2ccc(I)cc12` [Example 111]: the MIC (with Streptococcus pneumoniae (setting [7]); in assay [1] (setting [8]); in assay [2] (setting [8])) was < 7 µg/mL throughout.
As to `NCc1ccc(CNC(=O)c2cc(-c3c[nH]c4c(Cl)cccc34)nc3ccccc23)cc1` [Example 260], the MIC in the assay with Streptococcus pneumoniae (setting [3]) is < 25 µg/mL; in assay [1] (BHI broth, overnight 37° C.), < 25 µg/mL; in assay [2] (setting [4]) it was < 25 µg/mL.
Consider `OCc1cc(-c2c[nH]c3ccc(Br)cc23)nc2ccc(I)cc12` [Example 452], for which the minimum inhibitory concentration (MIC) in the assay on Streptococcus pneumoniae (setting [5]) was < 7 µg/mL; in assay [1] (setting [6]), < 7 µg/mL; in assay [2] (setting [6]), > 25 µg/mL.
For `CN1CCN(CC#Cc2ccc3nc(-c4cn(C)c5ccc(Br)cc45)cc(C(=O)NCCN)c3c2)CC1` [Example 405], the MIC (with Streptococcus pneumoniae (setting [5]); in assay [1] (setting [6]); in assay [2] (setting [6])) was < 25 µg/mL throughout.
`CNCCN(C)C(=O)c1cc(-c2c[nH]c3ccc(Br)cc23)nc2ccc(Cl)cc12` [Example 500]: the minimal inhibitory concentration (MIC) (with Streptococcus pneumoniae (setting [5]); in assay [1] (setting [6]); in assay [2] (setting [6])) was < 7 µg/mL each time.
Regarding `NCc1ccc(CNC(=O)c2cc(-c3c[nH]c4ccccc34)nc3ccc(I)cc23)cc1` [Example 159], the MIC is < 25 µg/mL in the assay on Streptococcus pneumoniae (setting [7]), < 7 µg/mL in assay [1] (setting [8]) and < 25 µg/mL in assay [2] (setting [8]).
